# Assay results taken from the supplement of paper PMC10307832.
# Tests used:
# Assay in all cases: relative viability (nuclei count vs DMSO), 5 days (fraction); higher = more cells survive
# NCI-H838 = test system: NCI-H838
# Method in brief: (§1)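 Nuclei were stained with Hoechst during a one-step fixation (final 0.05% Triton X-100, 1% formaldehyde, 1 ug/ml Hoechst) carried out 5 days after dosing, then counted on 4× images. The cells, lung cancer lines in 1536-well plates, had been dosed by pin tool the day after seeding with one drug alone or a fixed anchor-drug dose plus five library-drug doses (not always all listed) in √10 steps. Relative viability is the nuclei count in treated wells divided by that in vehicle wells, and each value is the median of duplicate plates.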
# 201T = test system: 201T
# Method in brief: as §1
# NCI-H2009 = test system: NCI-H2009
# Method in brief: as §1
# NCI-H23 = test system: NCI-H23
# Method in brief: as §1
# NCI-H2126 = test system: NCI-H2126
# Method in brief: as §1
# NCI-H2405 = test system: NCI-H2405
# Method in brief: as §1
# NCI-H661 = test system: NCI-H661
# Method in brief: as §1
# NCI-H1355 = test system: NCI-H1355
# Method in brief: as §1
# HCC-78 = test system: HCC-78
# Method in brief: as §1
# NCI-H322M = test system: NCI-H322M
# Method in brief: as §1
# EPLC-272H = test system: EPLC-272H
# Method in brief: as §1
# NCI-H1395 = test system: NCI-H1395
# Method in brief: as §1
# NCI-H647 = test system: NCI-H647
# Method in brief: as §1
# LCLC-97TM1 = test system: LCLC-97TM1
# Method in brief: as §1
# PC-14 = test system: PC-14
# Method in brief: as §1
# NCI-H2085 = test system: NCI-H2085
# Method in brief: as §1
# HCC-15 = test system: HCC-15
# Method in brief: as §1
# NCI-H2228 = test system: NCI-H2228
# Method in brief: as §1
# BEN = test system: BEN
# Method in brief: as §1
# LU99A = test system: LU99A
# Method in brief: as §1
# NCI-H650 = test system: NCI-H650
# Method in brief: as §1
# NCI-H460 = test system: NCI-H460
# Method in brief: as §1
compound,measurement,setting,value
Cc1cn(-c2cc(NC(=O)c3ccc(C)c(Nc4nccc(-c5cccnc5)n4)c3)cc(C(F)(F)F)c2)cn1 [Nilotinib] + C[C@]1(O)C[C@@H](c2nc(-c3ccc4ccc(-c5ccccc5)nc4c3)c3c(N)nccn32)C1 [Linsitinib] (partner 1 µM),relative viability,NCI-H838; first compound 0.001 µM,0.989
same,relative viability,NCI-H838; first compound 0.003162 µM,1.37
same,relative viability,NCI-H838; first compound 0.01 µM,1.39
same,relative viability,NCI-H838; first compound 0.03162 µM,0.967
same,relative viability,NCI-H838; first compound 0.1 µM,0.968
same,relative viability,201T; first compound 0.001 µM,0.942
same,relative viability,201T; first compound 0.003162 µM,1.06
same,relative viability,201T; first compound 0.01 µM,1.12
same,relative viability,NCI-H2009; first compound 0.001 µM,1.07
same,relative viability,NCI-H2009; first compound 0.003162 µM,1.28
same,relative viability,NCI-H2009; first compound 0.01 µM,1.22
same,relative viability,NCI-H2009; first compound 0.03162 µM,1.18
same,relative viability,NCI-H2009; first compound 0.1 µM,1.15
same,relative viability,NCI-H23; first compound 0.001 µM,0.556
same,relative viability,NCI-H23; first compound 0.003162 µM,0.686
same,relative viability,NCI-H23; first compound 0.01 µM,0.713
same,relative viability,NCI-H23; first compound 0.03162 µM,0.49
same,relative viability,NCI-H23; first compound 0.1 µM,0.579
same,relative viability,NCI-H2126; first compound 0.001 µM,0.684
same,relative viability,NCI-H2126; first compound 0.003162 µM,0.806
same,relative viability,NCI-H2126; first compound 0.01 µM,0.827
same,relative viability,NCI-H2126; first compound 0.03162 µM,0.779
same,relative viability,NCI-H2126; first compound 0.1 µM,0.666
same,relative viability,NCI-H2405; first compound 0.001 µM,0.976
same,relative viability,NCI-H2405; first compound 0.003162 µM,0.916
same,relative viability,NCI-H2405; first compound 0.01 µM,0.838
same,relative viability,NCI-H2405; first compound 0.03162 µM,0.789
same,relative viability,NCI-H2405; first compound 0.1 µM,0.74
same,relative viability,NCI-H661; first compound 0.001 µM,0.508
same,relative viability,NCI-H661; first compound 0.003162 µM,0.472
same,relative viability,NCI-H661; first compound 0.01 µM,0.612
same,relative viability,NCI-H661; first compound 0.03162 µM,0.501
same,relative viability,NCI-H661; first compound 0.1 µM,0.586
same,relative viability,NCI-H1355; first compound 0.001 µM,0.815
same,relative viability,NCI-H1355; first compound 0.003162 µM,1.11
same,relative viability,NCI-H1355; first compound 0.01 µM,1.16
same,relative viability,NCI-H1355; first compound 0.03162 µM,0.836
same,relative viability,NCI-H1355; first compound 0.1 µM,0.934
same,relative viability,HCC-78; first compound 0.001 µM,0.582
same,relative viability,HCC-78; first compound 0.003162 µM,0.522
same,relative viability,HCC-78; first compound 0.01 µM,0.637
same,relative viability,HCC-78; first compound 0.03162 µM,0.612
same,relative viability,HCC-78; first compound 0.1 µM,0.604
same,relative viability,NCI-H322M; first compound 0.001 µM,0.747
same,relative viability,NCI-H322M; first compound 0.003162 µM,1.03
same,relative viability,NCI-H322M; first compound 0.03162 µM,0.76
same,relative viability,NCI-H322M; first compound 0.1 µM,0.932
same,relative viability,EPLC-272H; first compound 0.001 µM,1.38
same,relative viability,EPLC-272H; first compound 0.003162 µM,1.34
same,relative viability,EPLC-272H; first compound 0.01 µM,1.42
same,relative viability,EPLC-272H; first compound 0.03162 µM,1.08
same,relative viability,EPLC-272H; first compound 0.1 µM,1.18
same,relative viability,NCI-H1395; first compound 0.001 µM,1
same,relative viability,NCI-H1395; first compound 0.003162 µM,0.826
same,relative viability,NCI-H1395; first compound 0.01 µM,1.07
same,relative viability,NCI-H1395; first compound 0.03162 µM,0.86
same,relative viability,NCI-H1395; first compound 0.1 µM,0.759
same,relative viability,NCI-H647; first compound 0.001 µM,1.13
same,relative viability,NCI-H647; first compound 0.003162 µM,1.43
same,relative viability,NCI-H647; first compound 0.03162 µM,1.07
same,relative viability,NCI-H647; first compound 0.1 µM,1.02
same,relative viability,LCLC-97TM1; first compound 0.001 µM,0.198
same,relative viability,LCLC-97TM1; first compound 0.003162 µM,0.228
same,relative viability,LCLC-97TM1; first compound 0.01 µM,0.276
same,relative viability,LCLC-97TM1; first compound 0.03162 µM,0.245
same,relative viability,LCLC-97TM1; first compound 0.1 µM,0.247
same,relative viability,PC-14; first compound 0.001 µM,0.883
same,relative viability,PC-14; first compound 0.003162 µM,1.05
same,relative viability,PC-14; first compound 0.01 µM,1.07
same,relative viability,PC-14; first compound 0.03162 µM,0.898
same,relative viability,PC-14; first compound 0.1 µM,1.01
same,relative viability,NCI-H2085; first compound 0.001 µM,0.864
same,relative viability,NCI-H2085; first compound 0.003162 µM,1.08
same,relative viability,NCI-H2085; first compound 0.01 µM,1.15
same,relative viability,NCI-H2085; first compound 0.03162 µM,0.888
same,relative viability,NCI-H2085; first compound 0.1 µM,0.884
same,relative viability,HCC-15; first compound 0.001 µM,0.874
same,relative viability,HCC-15; first compound 0.003162 µM,1.01
same,relative viability,HCC-15; first compound 0.01 µM,0.987
same,relative viability,HCC-15; first compound 0.03162 µM,0.743
same,relative viability,HCC-15; first compound 0.1 µM,0.744
same,relative viability,NCI-H2228; first compound 0.001 µM,0.578
same,relative viability,NCI-H2228; first compound 0.003162 µM,0.862
same,relative viability,NCI-H2228; first compound 0.01 µM,0.603
same,relative viability,NCI-H2228; first compound 0.03162 µM,0.657
same,relative viability,NCI-H2228; first compound 0.1 µM,0.623
same,relative viability,BEN; first compound 0.001 µM,0.95
same,relative viability,BEN; first compound 0.003162 µM,0.997
same,relative viability,BEN; first compound 0.01 µM,1.26
same,relative viability,BEN; first compound 0.1 µM,1.05
same,relative viability,LU99A; first compound 0.001 µM,0.468
same,relative viability,LU99A; first compound 0.003162 µM,0.59
same,relative viability,LU99A; first compound 0.01 µM,0.593
same,relative viability,LU99A; first compound 0.03162 µM,0.568
same,relative viability,LU99A; first compound 0.1 µM,0.318
same,relative viability,NCI-H650; first compound 0.001 µM,0.81
same,relative viability,NCI-H650; first compound 0.003162 µM,0.778
same,relative viability,NCI-H650; first compound 0.01 µM,0.925
same,relative viability,NCI-H650; first compound 0.03162 µM,0.84
same,relative viability,NCI-H650; first compound 0.1 µM,0.686
same,relative viability,NCI-H460; first compound 0.001 µM,0.586
same,relative viability,NCI-H460; first compound 0.003162 µM,1.1
same,relative viability,NCI-H460; first compound 0.01 µM,1.75
same,relative viability,NCI-H460; first compound 0.03162 µM,0.319
same,relative viability,NCI-H460; first compound 0.1 µM,0.507
